The record followed here is patent US20120039917A1, “IMMUNO[…]” (priority 2008, published 2012).

One data set deals with unstimulated T cells. The data set is described as follows: HLA-mismatched MLR after transient exposure of unstimulated T cells to PXD. Format: cell-based, human. The following applies: 10 μM PXD 24 h, washed, then MLR, FACS 8 days later; control MLR 62.6%. As to the method: (§1) Mixed lymphocyte reactions were established using unrelated, HLA-mismatched healthy donor blood samples as donor/recipient pairs. Stimulator PBMC were γ-irradiated with 30 Gy as described previously (Zenhausen et al., 2007). Responder PBMC were washed twice in PBS, 5,6-carboxy-succinimidyl-fluorescein-ester (CSFE)-labelled (1.25 μM, Sigma) at room temperature for 5 minutes, and washed twice in PBS/10% FCS. Two hundred thousand stimulator and responder cells were added per well at a 1:1 ratio in a 96 U-well plate in T cell medium. Stimulator and responder cells were also plated alone, and all cells were cultured in a 5% CO2, 37° C. humidified incubator. Viability, CFSE fluorescence and cell surface antigen expression were determined by flow cytometry. Cells were washed twice in FACS buffer (PBS, 2% FCS), and resuspended in 50 μL/5×10^5 cells and analysed on a Becton Dickinson LSRII FACS analyser using FlowJo (TreeStar) software.
The inventors next determined whether a transient exposure to PXD affected the ability of unstimulated T cells to respond normally to foreign antigen. Unstimulated T cells were incubated with 10 μM PXD for 24 h, washed twice and stimulated by adding HLA-mismatched γ-irradiated stimulator cells.

The next data set has as its system resting T cells. The experiment in a line: Apoptosis/viability by Annexin V/propidium iodide staining. It counts as cell-based, human. The following applies: 10 μM PXD for 24 h. As for the experimental part:
(§2) Immediately prior to experiments, frozen PBMC were thawed, centrifuged at 1400 rpm in a Multifuge 3 s (Heraeus) for 4 min, washed in RPMI+10% FCS and resuspended in T cell medium (RPMI+10% FCS+10 μM 2-mercaptoethanol (Sigma), 1×glutamine, 1×non-essential amino acids (Gibco)) at 2×10^6 cells/mL. Cells (2×10^5) were activated by adding 10 μg/mL anti-CD3 and 5 μg/mL anti-CD28 and 20 U/mL IL-2 per well. Cells were incubated at 37° C. in a humidified incubator maintained at 5% CO2 for 4 to 5 days until large numbers of large spherical aggregates or “bursts” of lymphocytes were observed. Activated proliferating T cells were pooled from the wells for further experiments. Resting T cells were incubated for the same length of time but in the presence of 20 U/mL IL-2 only.
(§3) Cells were centrifuged at 1400 rpm in a Multifuge 3 s (Heraeus) for 4 min at room temperature, washed in phosphate buffered saline solution, pH 7.3 (PBS) and resuspended in Annexin V binding buffer. Small aliquots (0.5-1×10^6 cells) were transferred to 1.5 mL tubes and spun at 1400 rpm in a Multifuge 3 s (Heraeus) for 4 min. […] Staining was analyzed by flow cytometry using a Becton Dickinson Canto II FACS analyser using FlowJo (TreeStar) software.
(§4) The extent of apoptosis in resting and proliferating T cells was determined after 24 h exposure to 10 μM PXD (FIG. 2) by AV/PI staining. […]

Assay in data set [1]: as above
Format: cell-based, human. The following applies: human, resting T cells from PBMC; resting T cells, 10 μM PXD for 24 h; read-out: [% viable blasts after PXD exposure]/[% viable blasts after 0.1% DMSO exposure]. As to the method: as §2, §3, §4

In data set [2] the test system is resting responder T cells. The data set is described as follows: Third party MLR of resting responder T cells sorted after PXD exposure. To be noted: 10 μM PXD added day 5 of first MLR; sorted day 8, restimulated without PXD. It counts as cell-based, human. As to the method:
as §1
The experiment described above was expanded by determining the effect of PXD exposure on responder T cells that had previously been exposed to, but not activated in a MLR. Two consecutive sets of MLRs were set up, mixing responder T cells and γ-irradiated stimulator cells on day 0, adding 10 μM PXD or 0.1% DMSO on day 5, and analysing proliferation and viability of responder T cells on day 8. […]

Data set [3] is described as follows: Sensitivity of cell types to PXD, viability by AV/PI staining. It counts as cell-based. To be noted: human, normal bone marrow cells; normal BM, 10 μM PXD for 24 h; read-out: [% viable blasts after PXD exposure]/[% viable blasts after 0.1% DMSO exposure]. As for the experimental part:
(§5) FIG. 6. Sensitivity of different cell types to PXD. Different cell types were incubated with 10 μM PXD for 24 h and viability was determined by AV/PI staining and reported as [% viable blasts after PXD exposure]/[% viable blasts after 0.1% DMSO exposure]. Percentage values are as follows: AML-derived HL60: 16±5 and HL60p°: 54±6, ALL-derived MOLT-4: 44±4, MM-derived U226: 59±6 and RPMI 8226: 12±4, primary AML blasts: 64±5, primary ALL blasts: 23±4, normal BM: 89±5, proliferating T cells: 69±4, resting T cells: 98±6. Results from cell lines are presented as the average±SEM of at least 3 separate experiments, results from bone marrow samples are presented as the average±SD of single experiments performed in duplicate.
Bone marrow samples from AML (n=22) and ALL (n=8) patients, containing more than 80% blasts, were selected from the tissue bank. […] was determined by AV/PI staining as [% viable blasts after PXD treatment]/[% viable blasts in control sample].
Cells were centrifuged at 1400 rpm in a Multifuge 3 s (Heraeus) for 4 min at room temperature, washed in phosphate buffered saline solution, pH 7.3 (PBS) and resuspended in Annexin V binding buffer. […] Staining was analyzed by flow cytometry using a Becton Dickinson Canto II FACS analyser using FlowJo (TreeStar) software.

In another data set the test system is ALL-derived MOLT-4. The data set is described as above. Format: cell-based. To be noted: Homo sapiens; MOLT-4, 10 μM PXD for 24 h; read-out: [% viable blasts after PXD exposure]/[% viable blasts after 0.1% DMSO exposure]. As to the method: as §5
(§6) Cell lines were grown in RPMI-1640 medium (GIBCO-BRL, Grand Island, N.Y.) supplemented with 5% (v/v) fetal calf serum, 2 mM […], 25 μg/mL penicillin, 25 μg/mL streptomycin, 50 μg/mL uridine and 1 mM pyruvate to densities of 1-2×10^6 cells/mL (exponential stage), at 37° C. in a humidified incubator maintained at 5% CO2.
(§7) Cells were centrifuged at 1400 rpm in a Multifuge 3 s (Heraeus) for 4 min at room temperature, washed in phosphate buffered saline solution, pH 7.3 (PBS) and resuspended in Annexin V binding buffer. Small aliquots (0.5-1×10^6 cells) were transferred to 1.5 mL tubes and spun at 1400 rpm in a Multifuge 3 s (Heraeus) for 4 min. Most supernatant was removed and 5 μL PI and 5 μL FITC-labelled AV was added to the wet pellets which were vortexed. After 30 min in the dark on ice, 500 μl of AV binding buffer was added, the cells were centrifuged for 2 min at 1400 rpm, washed once with AV binding buffer and resuspended in 300 μL of AV binding buffer in FACS tubes. Staining was analyzed by flow cytometry using a Becton Dickinson Canto II FACS analyser using FlowJo (TreeStar) software.

In another data set the test system is HL60p°. The description is as above. It counts as cell-based. To be noted: Homo sapiens, 10 μM PXD for 24 h, read-out: [% viable blasts after PXD exposure]/[% viable blasts after 0.1% DMSO exposure]. As for the experimental part: as §5, §6, §7

Structures are written as SMILES.

Regarding `Oc1ccc(C2=Cc3ccc(O)cc3OC2)cc1` [PXD, Isoflav-3-en-4′,7-diol], the “CD3+CFSEloAV− population after transient exposure” value in the data set on unstimulated T cells stood at 56.2%. The “percentage of viable resting T cells (AV/PI)” value with resting T cells is on record as “unaltered”. Besides, the viability at 24 h, 10 μM in data set [1] was 98 ± 6%; in data set [3], 89 ± 5%. The “viability and functionality of non-proliferating T cells” value in data set [2] is “affects neither the viability nor the functionality”. For the same compound, the viability at 10 µM with ALL-derived MOLT-4 was found to be 44 ± 4%; with HL60p°, 54 ± 6%.
